Reference: PubChem BioAssay (NCI)
“And” between values parts separate entries of the source, which are not always exact repeats. Identical values can stand only once.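 Exposure lasted 48 hours, with cells grown in 96-well plates and compounds tested at five concentrations. GI50 is the concentration that inhibits growth by half. At the TGI there is no net growth.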

Columns and labels:
Test in all cases: growth of human tumour cells (NCI), 48 h
[1] = test system: UACC-62 melanoma
[2] = test system: HOP-92 NSCLC
[3] = test system: OVCAR-3 ovarian
[4] = test system: UO-31 renal
[5] = test system: NCI-H522 lung
[6] = test system: SK-MEL-5 melanoma
[7] = test system: NCI-H23 lung
[8] = test system: SF-295 CNS
[9] = test system: T-47D breast
[10] = test system: HS 578T breast

Compound `O=C1c2cccc([N+](=O)[O-])c2C(=O)c2nccnc21` has a TGI [1] of 2.62 µM, a TGI [2] of 18.6 µM and a TGI [3] of 3.88 µM. For the same compound, the TGI [4] was 2.6 µM, the TGI [5] was 2.75 µM and the TGI [6] was 1.13 µM. It also gave a TGI [7] of 2.98 µM and a TGI [8] of 3.5 µM.

`CN(C)c1ccc(/C=C(\C#N)c2ccccc2)cc1` was tested, and the GI50 [1] was 0.312 µM and 0.36 µM and 0.52 µM, the TGI [1] was over 100 µM and the GI50 [3] was 0.272 µM and 0.398 µM and 0.365 µM. For the same compound, the TGI [3] was 1.22 µM and 3.23 µM and 4.25 µM, the GI50 [9] was 0.446 µM and 0.534 µM and 0.473 µM and the TGI [9] was over 100 µM. For the same compound, the GI50 [4] was 0.587 µM and 0.698 µM and 1.74 µM, the TGI [4] was over 100 µM and the GI50 [5] was 0.369 µM and 0.43 µM and 0.681 µM. The GI50 [6] was 0.398 µM and 0.45 µM and 0.345 µM, the TGI [6] was 26.3 µM and 18 µM and 17.8 µM and the GI50 [7] was 0.957 µM and 1.33 µM and 0.76 µM. The TGI [7] was over 100 µM, the GI50 [8] was 0.225 µM and 0.421 µM and the TGI [8] was 0.99 µM and 5.97 µM.

With `O=C(CN(Cc1ccccc1)Cc1ccccc1)N1CCc2c([nH]c3ccccc23)C1c1cccnc1` (stereo not drawn) the TGI [1] was 30.7 µM, the TGI [2] was 12.8 µM and the TGI [3] was 34 µM. It also gave a TGI [4] of 9.54 µM, a TGI [5] of 73.6 µM and a TGI [6] of 20.1 µM. The TGI [7] was 79.3 µM and the TGI [8] was over 100 µM.

Work on `[N-]=[N+]=NCCCn1c2c(c3ccc([N+](=O)[O-])cc3c1=O)C(=O)c1cc(I)ccc1-2` yielded a GI50 [1] of 3.33 µM, a TGI [1] of 18.3 µM and a GI50 [3] of 18.3 µM. It also gave a TGI [3] of over 100 µM, a GI50 [9] of 3.87 µM and a TGI [9] of over 100 µM. The GI50 [4] was 3.82 µM, the TGI [4] was 45.6 µM and the GI50 [5] was 1.68 µM. The TGI [5] was 12.4 µM, the GI50 [6] was 3.77 µM and the TGI [6] was 15.5 µM. For the same compound, the GI50 [10] was 28 µM, the TGI [10] was over 100 µM and the GI50 [7] was 5.41 µM. The TGI [7] was 55.7 µM, the GI50 [8] was 1.54 µM and the TGI [8] was over 100 µM.

With `CN1C(c2ccccc2)CC(C)(O)CC1c1ccccc1` (stereo not drawn) the TGI [1] was over 100 µM, the TGI [2] was over 100 µM and the TGI [3] was over 100 µM. It also gave a TGI [4] of over 100 µM, a TGI [5] of over 100 µM and a TGI [6] of over 100 µM. It also gave a TGI [7] of over 100 µM and a TGI [8] of over 100 µM.

With `COc1ccc(C2CC(c3ccccc3)=NN2C(=O)c2cc(OC)c(OC)c(OC)c2)cc1O` (stereo not drawn) the GI50 [1] was 0.269 µM, the TGI [1] was 15.8 µM and the GI50 [2] was 1.72 µM. The TGI [2] was 33.2 µM, the GI50 [3] was 0.326 µM and the TGI [3] was 3.99 µM. For the same compound, the GI50 [4] was 0.751 µM, the TGI [4] was over 100 µM and the GI50 [5] was 0.335 µM. For the same compound, the TGI [5] was 7.03 µM, the GI50 [6] was 0.338 µM and the TGI [6] was 2.17 µM. The GI50 [10] was 0.316 µM, the TGI [10] was 1.13 µM and the GI50 [7] was 0.743 µM. For the same compound, the TGI [7] was over 65.8 µM, the GI50 [8] was 0.366 µM and the TGI [8] was over 38.5 µM.

Work on `Cc1ccccc1C=NC12CC3CC(CC(C3)C1)C2` yielded a TGI [1] of over 100 µM, a TGI [2] of over 100 µM and a TGI [3] of over 100 µM. It also gave a TGI [4] of over 100 µM, a TGI [5] of over 100 µM and a TGI [6] of over 100 µM. For the same compound, the TGI [7] was over 100 µM and the TGI [8] was over 100 µM.

Work on `CCC1=C[C@@H]2CN(C1)Cc1c([nH]c3ccccc13)[C@@](C(=O)OC)(c1cc3c(cc1OC)N(C)[C@H]1[C@@](O)(C(=O)OC)[C@H](OC(C)=O)[C@]4(CC)C=CCN5CC[C@]31[C@@H]54)C2` yielded a GI50 [1] of under 0.01 µM, a TGI [1] of 18.6 µM and a GI50 [2] of under 0.0471 µM. It also gave a TGI [2] of 0.554 µM, a GI50 [3] of under 0.01 µM and a TGI [3] of under 0.01 µM. For the same compound, the GI50 [4] was 1.02 µM, the TGI [4] was 18.6 µM and the GI50 [5] was under 0.0227 µM. It also gave a TGI [5] of over 31.8 µM, a GI50 [6] of under 0.01 µM and a TGI [6] of 0.119 µM. The GI50 [10] was under 0.01 µM, the TGI [10] was 9.59 µM and the GI50 [7] was under 0.0187 µM. It also gave a TGI [7] of 41.4 µM and a GI50 [8] of under 0.01 µM.

`Cc1cc(Cl)ccc1NC(=O)CC1SC(=NC(=O)c2ccccc2Cl)NC1=O` (stereo not drawn) was tested, and the TGI [1] was 71.2 µM, the TGI [2] was 35.9 µM and the TGI [3] was 36.3 µM. It also gave a TGI [4] of 44.6 µM, a TGI [5] of 29 µM and a TGI [6] of 95.7 µM. It also gave a TGI [7] of over 100 µM and a TGI [8] of over 100 µM.

`CC[O-].CC[O-].COc1ccc(C(=O)[CH-]C(C)=O)cc1OC.COc1ccc(C(=O)[CH-]C(C)=O)cc1OC.[Ti+4]` gave a GI50 [1] of 56.5 µM, a TGI [1] of over 100 µM and a GI50 [2] of 32.1 µM. The TGI [2] was 65.9 µM, the GI50 [3] was 46.4 µM and the TGI [3] was over 100 µM. It also gave a GI50 [4] of 11.7 µM, a TGI [4] of 49.7 µM and a GI50 [6] of over 100 µM. It also gave a TGI [6] of over 100 µM, a GI50 [7] of over 100 µM and a TGI [7] of over 100 µM. For the same compound, the GI50 [8] was 33.9 µM and the TGI [8] was over 100 µM.

`Cc1cc2c(C(=O)NCC#N)cccc2n1-c1nc2c(c(NCc3ccccc3)n1)CCCC2` gave a GI50 [1] of 0.203 µM, a TGI [1] of 0.482 µM and a GI50 [3] of 0.245 µM. It also gave a TGI [3] of 0.62 µM, a GI50 [9] of 0.269 µM and a TGI [9] of 1.53 µM. For the same compound, the GI50 [4] was 0.305 µM, the TGI [4] was 1.11 µM and the GI50 [5] was 0.242 µM. For the same compound, the TGI [5] was 0.842 µM, the GI50 [6] was 0.118 µM and the TGI [6] was 0.245 µM. For the same compound, the GI50 [10] was 0.386 µM, the TGI [10] was 47.5 µM and the GI50 [7] was 0.285 µM. For the same compound, the TGI [7] was 1.19 µM, the GI50 [8] was 0.191 µM and the TGI [8] was 0.444 µM.

Compound `CCc1cccc(C)c1N1C(=O)C(=O)C(c2nc3ccccc3o2)/C(=N/NC(=S)NN)C1=O` (stereo not drawn) has a TGI [1] of over 100 µM, a TGI [2] of over 100 µM and a TGI [3] of over 100 µM. The TGI [4] was over 100 µM, the TGI [5] was over 100 µM and the TGI [6] was over 100 µM. The TGI [7] was over 100 µM and the TGI [8] was over 100 µM.

For `O=CC1CCC=CC1NC(=O)OCc1ccccc1` (stereo not drawn), the TGI [1] was over 100 µM, the TGI [2] was over 100 µM and the TGI [4] was over 100 µM. It also gave a TGI [5] of over 100 µM, a TGI [6] of over 100 µM and a TGI [7] of over 100 µM. The TGI [8] was over 100 µM.

`N#CC(C(=O)/C(=N/NC(=O)c1ccccc1O)C(C#N)c1ccc(Br)cc1)c1ccc(Br)cc1` (stereo not drawn) was tested, and the TGI [1] was 28.2 µM, the TGI [2] was 31.1 µM and the TGI [3] was 26.4 µM. The TGI [4] was 26.1 µM, the TGI [5] was 27.7 µM and the TGI [6] was 21.5 µM. It also gave a TGI [7] of 16.4 µM and a TGI [8] of 28.6 µM.

`CCOC(=O)NC(=O)c1cn(CCCCCCCCCCC(=O)NCCCN2CCN(CCCNC(=O)CCCCCCCCCCn3cc(C(=O)NC(=O)OCC)c(=O)[nH]c3=O)CC2)c(=O)[nH]c1=O` gave a TGI [1] of over 100 µM, a TGI [2] of over 100 µM and a TGI [3] of over 10 µM. For the same compound, the TGI [4] was over 100 µM, the TGI [5] was over 10 µM and the TGI [7] was over 100 µM. For the same compound, the TGI [8] was over 100 µM.

Compound `O=C(Nc1ccccc1)n1cc(-c2ccccn2)c(N2CCOCC2)n1` has a TGI [1] of over 100 µM, a TGI [2] of over 100 µM and a TGI [3] of 29.5 µM. The TGI [4] was 92.8 µM, the TGI [5] was 6.58 µM and the TGI [6] was over 100 µM. The TGI [8] was 28.2 µM.

Work on `O=C(CCC(=O)Nc1ccc(Cl)cc1)CC(=O)c1ccc2ccccc2c1` yielded a TGI [1] of over 100 µM, a TGI [2] of over 100 µM and a TGI [3] of over 100 µM. For the same compound, the TGI [4] was over 100 µM, the TGI [5] was over 100 µM and the TGI [6] was over 100 µM. It also gave a TGI [7] of over 100 µM and a TGI [8] of over 100 µM.

Work on `O=C(/C=C/c1ccco1)Nc1ncc(Cc2cccc(C(F)(F)F)c2)s1` yielded a GI50 [1] of 0.0545 µM, a TGI [1] of 24.6 µM and a GI50 [3] of 0.0386 µM. The TGI [3] was 0.45 µM, the GI50 [9] was 0.12 µM and the TGI [9] was over 92.2 µM. It also gave a GI50 [4] of 0.166 µM, a TGI [4] of 5.13 µM and a GI50 [5] of 0.0321 µM. For the same compound, the TGI [5] was 0.328 µM, the GI50 [6] was 0.0512 µM and the TGI [6] was 1.81 µM. For the same compound, the GI50 [10] was 0.0466 µM, the TGI [10] was 3.89 µM and the GI50 [7] was 0.208 µM. For the same compound, the TGI [7] was over 39.7 µM, the GI50 [8] was 0.0678 µM and the TGI [8] was 1.42 µM.
